The record followed here is patent US9000029B2, “Proline sulfonamide derivatives as orexin receptor antagonists” (Actelion Pharmaceuticals Ltd., priority 2010, dated 2015).

Like-named read-outs stand apart in the source and are kept apart here.

For one experiment, the target named is human orexin-2 receptor (Homo sapiens (Human), UniProt O43614). Put plainly: Intracellular calcium measurements (FLIPR), antagonism of orexin-A response. The class given is cell-based. As to conditions: CHO cells, 3 nM orexin-A, read-out: IC50 Ox2. Here is the method:
(§1) In Vitro Assay: Intracellular Calcium Measurements:
(§2) Chinese hamster ovary (CHO) cells expressing the human orexin-1 receptor and the human orexin-2 receptor, respectively, are grown in culture medium (Ham F-12 with L-Glutamine) containing 300 μg/ml G418, 100 U/ml penicillin, 100 μg/ml streptomycin and 10% heat inactivated fetal calf serum (FCS). The cells are seeded at 20'000 cells/well into 384-well black clear bottom sterile plates (Greiner). The seeded plates are incubated overnight at 37° C. in 5% CO2.
(§3) Human orexin-A as an agonist is prepared as 1 mM stock solution in MeOH: water (1:1), diluted in HBSS containing 0.1% bovine serum albumin (BSA), NaHCO3: 0.375 g/l and 20 mM HEPES for use in the assay at a final concentration of 3 nM.
(§4) Antagonists are prepared as 10 mM stock solution in DMSO, then diluted in 384-well plates using DMSO followed by a transfer of the dilutions into in HBSS containing 0.1% bovine serum albumin (BSA), NaHCO3: 0.375 g/l and 20 mM HEPES. On the day of the assay, 50 μl of staining buffer (HBSS containing 1% FCS, 20 mM HEPES, NaHCO3: 0.375 g/l, 5 mM probenecid (Sigma) and 3 μM of the fluorescent calcium indicator fluo-4 AM (1 mM stock solution in DMSO, containing 10% pluronic) is added to each well. The 384-well cell-plates are incubated for 50 min at 37° C. in 5% CO2 followed by equilibration at RT for 30 min before measurement.
(§5) Within the Fluorescent Imaging Plate Reader (FLIPR Tetra, Molecular Devices), antagonists are added to the plate in a volume of 10 μl/well, incubated for 10 min or (where explicitly indicated) for 120 min and finally 10 μl/well of agonist is added. Fluorescence is measured for each well at 1 second intervals, and the height of each fluorescence peak is compared to the height of the fluorescence peak induced by 3 nM orexin-A with vehicle in place of antagonist. The IC50 value (the concentration of compound needed to inhibit 50% of the agonistic response) is determined and may be normalized using the obtained IC50 value of a on-plate reference compound. Optimized conditions were achieved by adjustment of pipetting speed and cell splitting regime. The calculated IC50 values may fluctuate depending on the daily cellular assay performance. Fluctuations of this kind are known to those skilled in the art.
(In general: A change in cytosolic calcium serves as a functional read-out for many receptors and channels.)

Another experiment addresses human orexin-1 receptor (Homo sapiens (Human), UniProt O43613). Described as above. The class given is cell-based. As to conditions: CHO cells, 3 nM orexin-A, read-out: IC50 Ox1. Here is the method: as §1, §2, §3, §4, §5
[1] abbreviates: compound incubation time of 120 min.

Chain of human orexin-2 receptor (O43614 whole entry): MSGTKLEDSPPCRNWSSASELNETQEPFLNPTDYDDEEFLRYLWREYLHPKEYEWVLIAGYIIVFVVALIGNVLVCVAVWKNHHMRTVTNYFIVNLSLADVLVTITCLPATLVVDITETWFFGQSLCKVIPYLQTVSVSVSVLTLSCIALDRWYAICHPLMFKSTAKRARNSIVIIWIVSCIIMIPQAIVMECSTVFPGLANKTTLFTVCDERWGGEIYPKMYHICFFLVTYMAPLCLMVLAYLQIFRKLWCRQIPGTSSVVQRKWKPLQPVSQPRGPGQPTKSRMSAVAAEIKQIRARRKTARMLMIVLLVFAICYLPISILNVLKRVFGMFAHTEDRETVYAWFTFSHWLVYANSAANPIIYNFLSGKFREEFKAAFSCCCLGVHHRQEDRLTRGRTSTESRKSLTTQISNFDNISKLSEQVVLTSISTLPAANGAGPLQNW
Chain of human orexin-1 receptor (O43613 whole entry): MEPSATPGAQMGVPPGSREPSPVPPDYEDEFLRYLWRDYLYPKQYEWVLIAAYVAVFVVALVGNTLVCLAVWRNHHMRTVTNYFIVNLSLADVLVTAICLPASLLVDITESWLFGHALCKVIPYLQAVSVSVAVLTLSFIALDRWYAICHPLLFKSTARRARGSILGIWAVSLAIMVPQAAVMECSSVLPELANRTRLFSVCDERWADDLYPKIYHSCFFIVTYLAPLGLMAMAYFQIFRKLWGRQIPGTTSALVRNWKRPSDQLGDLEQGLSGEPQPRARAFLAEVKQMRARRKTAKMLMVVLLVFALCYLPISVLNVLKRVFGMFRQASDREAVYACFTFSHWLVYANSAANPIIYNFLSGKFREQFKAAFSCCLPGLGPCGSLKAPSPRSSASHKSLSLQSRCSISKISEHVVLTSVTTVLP

Broadly, the IC50 is the concentration that gives 50% inhibition. For `COc1ccc(S(=O)(=O)N2CCC[C@H]2C(=O)Nc2cccc(C#N)c2)cc1` [Example 25, (S)-1-(4-Methoxy-benzenesulfonyl)-pyrrolidine-2-carboxylic acid (3-cyano-phenyl)-amide], the IC50 at human orexin-2 receptor (compound incubation 10 min) is 98 nM; on human orexin-1 receptor (compound incubation 10 min), 994 nM.
Take `COc1ccc(S(=O)(=O)N2CCC[C@H]2C(=O)Nc2cc(C)cc(C)c2)cc1OC` [Example 44, (S)-1-(3,4-Dimethoxy-benzenesulfonyl)-pyrrolidine-2-carboxylic acid (3,5-dimethyl-phenyl)-amide]: the results for the IC50 on human orexin-2 receptor (setting [1]) and on human orexin-1 receptor (setting [1]) were 101 nM and 109 nM, respectively.
With `COc1ccc(S(=O)(=O)N2CCC[C@H]2C(=O)Nc2cc(Cl)cc(Cl)c2)cc1` [Example 16, (S)-1-(4-Methoxy-benzenesulfonyl)-pyrrolidine-2-carboxylic acid (3,5-dichloro-phenyl)-amide], the IC50 at human orexin-2 receptor (compound incubation 10 min) was determined as 20 nM; on human orexin-1 receptor (compound incubation 10 min), 64 nM.
For `COc1cc(C)ccc1S(=O)(=O)N1CCC[C@H]1C(=O)Nc1cc(C)cc(C)c1` [Example 45, (S)-1-(2-Methoxy-4-methyl-benzenesulfonyl)-pyrrolidine-2-carboxylic acid (3,5-dimethyl-phenyl)-amide], the values for the IC50 on human orexin-2 receptor (setting [1]) and at human orexin-1 receptor (setting [1]) were 168 nM and 166 nM, respectively.
Turning to `COc1ccc(S(=O)(=O)N2CCC[C@H]2C(=O)Nc2cc(OC)ccc2Cl)cc1` [Example 29, (S)-1-(4-Methoxy-benzenesulfonyl)-pyrrolidine-2-carboxylic acid (2-chloro-5-methoxy-phenyl)-amide], the concentration for half-maximal inhibition (IC50) on human orexin-2 receptor (compound incubation 10 min) amounted to 128 nM; on human orexin-1 receptor (compound incubation 10 min), 625 nM.
The matching figures for `CCc1cccc(NC(=O)[C@@H]2CCCN2S(=O)(=O)c2ccc(OC)cc2)c1` [Example 34, (S)-1-(4-Methoxy-benzenesulfonyl)-pyrrolidine-2-carboxylic acid (3-ethyl-phenyl)-amide]: 8 nM and 54 nM.
The like results for `COc1ccc(S(=O)(=O)N2CCC[C@H]2C(=O)Nc2ccc(Cl)c(Cl)c2)cc1` [Example 40, (S)-1-(4-Methoxy-benzenesulfonyl)-pyrrolidine-2-carboxylic acid (3,4-dichloro-phenyl)-amide] were, in that order, 58 nM and 130 nM.
For the molecule `Cc1cc(C)cc(NC(=O)[C@@H]2CCCN2S(=O)(=O)c2ccc3ccccc3c2)c1` [Example 43, (S)-1-(Naphthalene-2-sulfonyl)-pyrrolidine-2-carboxylic acid (3,5-dimethyl-phenyl)-amide], the 50% inhibitory concentration (IC50) at human orexin-2 receptor (setting [1]) was determined as 25 nM; at human orexin-1 receptor (setting [1]), 73 nM.
For the molecule `COc1ccc(S(=O)(=O)N2CCC[C@H]2C(=O)Nc2cccc(Br)c2)cc1` [Example 19, (S)-1-(4-Methoxy-benzenesulfonyl)-pyrrolidine-2-carboxylic acid (3-bromo-phenyl)-amide], the results for the half-maximal inhibitory concentration (IC50) at human orexin-2 receptor (compound incubation 10 min) and on human orexin-1 receptor (compound incubation 10 min) were 37 nM and 79 nM, respectively.
The like results for `CSc1cccc(NC(=O)[C@@H]2CCCN2S(=O)(=O)c2ccc(Cl)c(Cl)c2)c1` [Example 14, (S)-1-(3,4-Dichloro-benzenesulfonyl)-pyrrolidine-2-carboxylic acid (3-methylsulfanyl-phenyl)-amide] were, in that order, 2 nM and 7 nM.
On to `Cc1cc(C)cc(NC(=O)[C@@H]2CCCN2S(=O)(=O)c2cc(C(F)(F)F)ccc2Cl)c1` [Example 50, (S)-1-(2-Chloro-5-trifluoromethyl-benzenesulfonyl)-pyrrolidine-2-carboxylic acid (3,5-dimethyl-phenyl)-amide], for which the IC50 at human orexin-2 receptor (setting [1]) worked out at 36 nM; at human orexin-1 receptor (setting [1]), 1580 nM.
The like results for `Cc1cc(C)cc(NC(=O)[C@@H]2CCCN2S(=O)(=O)c2ccc(Br)cc2C)c1` [Example 57, (S)-1-(4-Bromo-2-methyl-benzenesulfonyl)-pyrrolidine-2-carboxylic acid (3,5-dimethyl-phenyl)-amide] were, in that order, 22 nM and 62 nM.
As to `COc1ccc(S(=O)(=O)N2CCC[C@H]2C(=O)Nc2cccc(SC)c2)cc1` [Example 6, (S)-1-(4-Methoxy-benzenesulfonyl)-pyrrolidine-2-carboxylic acid (3-methylsulfanyl-phenyl)-amide], the concentration for half-maximal inhibition (IC50) on human orexin-2 receptor (compound incubation 10 min) was determined as 3 nM; at human orexin-1 receptor (compound incubation 10 min), 21 nM.
Take `O=C(Nc1ccccc1)[C@@H]1CCCN1S(=O)(=O)c1ccc(Br)s1` [Example 15, (S)-1-(5-Bromo-thiophene-2-sulfonyl)-pyrrolidine-2-carboxylic acid phenylamide]: the values for the IC50 on human orexin-2 receptor (compound incubation 10 min) and on human orexin-1 receptor (compound incubation 10 min) were 164 nM and 333 nM, respectively.
The matching figures for `CSc1cccc(NC(=O)[C@@H]2CCCN2S(=O)(=O)c2ccc3c(c2)OCCN3C)c1` [Example 5, (S)-1-(4-Methyl-3,4-dihydro-2H-benzo[1,4]oxazine-7-sulfonyl)-pyrrolidine-2-carboxylic acid (3-methylsulfanyl-phenyl)-amide]: 27 nM and 128 nM.
Take `CCOc1cccc(NC(=O)[C@@H]2CCCN2S(=O)(=O)c2ccc(OC)cc2)c1` [Example 32, (S)-1-(4-Methoxy-benzenesulfonyl)-pyrrolidine-2-carboxylic acid (3-ethoxy-phenyl)-amide]: the IC50 on human orexin-2 receptor (compound incubation 10 min) came out at 38 nM; on human orexin-1 receptor (compound incubation 10 min), 134 nM.
On to `Cc1cc(C)cc(NC(=O)[C@@H]2CCCN2S(=O)(=O)c2ccc(Cl)c(Cl)c2)c1` [Example 54, (S)-1-(3,4-Dichloro-benzenesulfonyl)-pyrrolidine-2-carboxylic acid (3,5-dimethyl-phenyl)-amide], for which the figures for the IC50 at human orexin-2 receptor (setting [1]) and on human orexin-1 receptor (setting [1]) were 158 nM and 218 nM, respectively.
Regarding `COc1ccc(S(=O)(=O)N2CCC[C@H]2C(=O)Nc2cc(C(F)(F)F)cc(C(F)(F)F)c2)cc1` [Example 30, (S)-1-(4-Methoxy-benzenesulfonyl)-pyrrolidine-2-carboxylic acid (3,5-bis-trifluoromethyl-phenyl)-amide], the values for the 50% inhibitory concentration (IC50) at human orexin-2 receptor (compound incubation 10 min) and at human orexin-1 receptor (compound incubation 10 min) were 68 nM and 86 nM, respectively.
The matching figures for `COc1ccc(S(=O)(=O)N2CCC[C@H]2C(=O)Nc2cc(Cl)ccc2OC)cc1` [Example 35, (S)-1-(4-Methoxy-benzenesulfonyl)-pyrrolidine-2-carboxylic acid (5-chloro-2-methoxy-phenyl)-amide]: 209 nM and 714 nM.
In the case of `COc1ccc(S(=O)(=O)N2CCC[C@H]2C(=O)Nc2ccc(F)c(F)c2)cc1` [Example 36, (S)-1-(4-Methoxy-benzenesulfonyl)-pyrrolidine-2-carboxylic acid (3,4-difluoro-phenyl)-amide], the values for the IC50 on human orexin-2 receptor (compound incubation 10 min) and on human orexin-1 receptor (compound incubation 10 min) were 136 nM and 569 nM, respectively.
For the molecule `Cc1cc(C)cc(NC(=O)[C@@H]2CCCN2S(=O)(=O)c2ccc(Cl)cc2)c1` [Example 46, (S)-1-(4-Chloro-benzenesulfonyl)-pyrrolidine-2-carboxylic acid (3,5-dimethyl-phenyl)-amide], the IC50 on human orexin-2 receptor (setting [1]) is 32 nM; at human orexin-1 receptor (setting [1]) it was 35 nM.
The matching figures for `Cc1cc(C)cc(NC(=O)[C@@H]2CCCN2S(=O)(=O)c2ccc(C)cc2Br)c1` [Example 52, (S)-1-(2-Bromo-4-methyl-benzenesulfonyl)-pyrrolidine-2-carboxylic acid (3,5-dimethyl-phenyl)-amide]: 82 nM and 89 nM.
`Cc1cc(C)cc(NC(=O)[C@@H]2CCCN2S(=O)(=O)c2ccc(S(C)(=O)=O)cc2)c1` [Example 49, (S)-1-(4-Methanesulfonyl-benzenesulfonyl)-pyrrolidine-2-carboxylic acid (3,5-dimethyl-phenyl)-amide]: the results for the IC50 on human orexin-2 receptor (setting [1]) and on human orexin-1 receptor (setting [1]) were 197 nM and 16 nM, respectively.
